Experimental findings from PubChem BioAssay AID743170 (Sanford-Burnham Center for Chemical Genomics, 2013) are described below.

“And” between values parts separate entries of the source, which are not always exact repeats. Equal values may be shown once. The source made the active and inactive calls.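 The calls were made as follows: active = compounds that lower Nile red lipid droplet staining in rat heart muscle cells with dose, giving a fitted IC50; inactive = the rest.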 Bounds are passed on as bounds.

Usually IC50 stands for the concentration that gives 50% inhibition.

The test system of this experiment is H9c2 cells, Nile red TAG accumulation, high-content imaging. Briefly: inhibitors of cytoplasmic TAG accumulation in H9c2, dose response, imaging, H9c2 cells, high-content screening (AID 743170).
In the case of `CSCCCN1Cc2cccc(C(=O)Nc3cccc(-c4nc5ccccc5[nH]4)c3)c2C1=O`, the IC50 was 526 nM. For `COCCn1cnc2cccc(C(=O)Nc3cccc(-c4nc5ccccc5[nH]4)c3)c2c1=O`, the IC50 is > 50000 nM (inactive). Turning to `COCCN1Cc2cccc(C(=O)Nc3cccc(-c4nc5ccccc5[nH]4)c3)c2C1=O`, the IC50 was 567 nM and 569 nM and 839 nM.

`O=C(Nc1cccc(-c2nc3ccccc3[nH]2)c1)c1cccc2c1C(=O)N(CCc1ccccc1)C2`: the IC50 was 11200 nM. As for `COCCN1Cc2cccc(C(=O)Nc3cccc(-c4nc5ccc(C)cc5[nH]4)c3)c2C1=O`, the IC50 was 393 nM.

In the case of `COCCN1Cc2cccc(C(=O)Nc3cccc(-c4nc5ccc(F)cc5[nH]4)c3)c2C1=O`, the IC50 is 762 nM. For the compound `COCCN1Cc2cccc(C(=O)NCc3cccc(N(C)C)c3)c2C1=O`, the IC50 was > 50000 nM (inactive). Next, `COCCCN1Cc2cccc(C(=O)Nc3cccc(-c4nc5ccccc5[nH]4)c3)c2C1=O`: 1370 nM; `COCCN1Cc2cccc(C(=O)Nc3nc4ccccc4n3C)c2C1=O`: > 50000 nM (inactive). `COCCN1Cc2cccc(C(=O)Nc3cccnc3)c2C1=O`: the IC50 is > 50000 nM (inactive).

Regarding `CCCCN1Cc2cccc(C(=O)Nc3cccc(-c4nc5ccccc5[nH]4)c3)c2C1=O`, the IC50 is 760 nM. Next, `COCCN1Cc2cccc(C(=O)Nc3cccc(C(=O)Nc4ccccc4OC)c3)c2C1=O`: 2490 nM. Next, `O=C(Nc1cccc(-c2nc3ccccc3[nH]2)c1)c1cccc2c1C(=O)N(CC1CC1)C2`: 662 nM. Next, `O=C(Nc1cccc(-c2nc3ccccc3[nH]2)c1)c1cccc2c1C(=O)N(CCN1CCOCC1)C2`: 1750 nM; `COCCN1Cc2cccc(C(=O)Nc3cccc(-c4nc5ccc(Cl)cc5[nH]4)c3)c2C1=O`: 1020 nM. Consider `CCOCCN1Cc2cccc(C(=O)Nc3cccc(-c4nc5ccccc5[nH]4)c3)c2C1=O`, for which the IC50 is 792 nM. Consider `COCCN1Cc2cccc(C(=O)Nc3cccc(C(=O)Nc4ccccc4)c3)c2C1=O`, for which the IC50 is 2330 nM.

In the case of `COc1ccc(CCN2Cc3cccc(C(=O)Nc4cccc(-c5nc6ccccc6[nH]5)c4)c3C2=O)cc1OC`, the IC50 is 829 nM.

Regarding `O=C(Nc1cccc(-c2nc3ccccc3[nH]2)c1)c1cccc2c1C(=O)N(CCOc1ccccc1)C2`, the IC50 was 793 nM. With `COc1ccccc1CCN1Cc2cccc(C(=O)Nc3cccc(-c4nc5ccccc5[nH]4)c3)c2C1=O`, the IC50 was 432 nM. Next, `COCCN1Cc2cccc(C(=O)Nc3nc4ccccc4[nH]3)c2C1=O`: > 50000 nM (inactive). Next, `CCOC(=O)c1cccc(NC(=O)c2cccc3c2C(=O)N(CCOC)C3)c1`: > 50000 nM (inactive).

Regarding `COCCN1Cc2cccc(C(=O)Nc3cccc(-c4nc5ccc(C(F)(F)F)cc5[nH]4)c3)c2C1=O`, the IC50 was 352 nM.
